# In patent US6328728A, “Composition and method for enhancing electrotransport agent delivery” (Alza Corporation, priority 1997, dated 2001):
# Read-outs that look alike come from different tables or passages of the source.
# Assay type: in vivo, male hairless guinea pigs
# Settings: for average plasma calcitonin concentration (given in flux units): second hour/steady state
# Procedure: This study was undertaken to assess the effect on the transdermal delivery rate by electrotransport of an agent such as calcitonin (sCT), a protein with an affinity for the surfactant Tween 20 at pH 6.5, by delivering the agent in the presence of Tween 20 from a donor gel.
# A customized electrotransport system, and its reservoir matrices and contents were prepared as described below. A low level current of 100 μA cm^-2 was maintained throughout each test by a self contained power module (ALZA Corp., Palo Alto, Calif., Code #84166). The peptide agent salmon calcitonin (sCT, UCB-Bioproducts S.A., Chemin du Foriest, Allend, Belgium) was chosen for delivery by electrotransport. The protein calcitonin has a positive net charge at pH 6.5 and was therefore anodically driven from the positive electrode toward the negative electrode. Three gels were prepared for use with the electrotransport system. The anode gel provided the proper environment for the anodic electrochemical reaction. It was comprised of Bio-Rad resin beads (100-200 mesh, chloride form, Bio-Rad Laboratories, Richmond, Calif.) in 48 mM histidine buffer, pH 6.5, and 0.5% hydroxyethyl cellulose (HEC). The cathode gel provided the proper environment for the cathodic electrochemical reaction and completed the electrical circuit. It was comprised of an L-histidine buffered HEC gel, pH 2.9, and sodium chloride. The donor gel occupied a surface area of 2 cm^2 and was separated from the anode compartment by a 1 Kdalton molecular weight (MW) cut-off membrane (Millipore Corp., Bedford, Mass.). The donor gel was prepared by first mixing 48 mM histidine buffer, pH 6.5, with HEC, vortexing vigorously to completely dissolve the HEC and to ensure homogeneous polymerization of the gel. After a few minutes, either a 10% solution of Tween 20 (Pierce, Rockford, Ill.) or water was added in conjunction with a stock solution of calcitonin and gently mixed into the gel. The amounts of each component were calculated to produce a nominal concentration of 1 mM sCT in a 1% HEC gel of 1 mL volume (with or without Tween 20). The gel was slowly rotated and allowed to equilibrate overnight at 4° C. An aliquot of 275-295 μL of donor gel was weighed and placed in the donor reservoir of the electrotransport system immediately prior to beginning each experiment. The 3 gels were contained in 2 separate structures, with each gel compartment being a punched double-sided adhesive foam ring 0.081 cm (0.032") thick with an outside diameter of 3.2 cm (11/4") and an inside diameter of 1.6 cm (5/8"). The compartment ring containing the cathode gel was open on the skin side. The back side was covered by an electrode sandwich consisting of a 3.2 cm (11/4") diameter release liner cover, a 2.2 cm (13/15") diameter punch of electrical conducting adhesive tape, a 11 cm (41/2") silver wire that was slightly coiled at one end, with the coil placed at the center of the electrode leading out, and a 1.6 cm (5/8") diameter punch of AgCl PIB electrode film. The donor gel compartment was also open on the skin side, but the back side was covered by a 2.2 cm (13/15") diameter punch of a 1,000 Dalton MW cut-off membrane. The anode compartment was then stacked on top of the donor compartment and covered with an electrode sandwich identical to the cathode, except that the AgCl PIB electrode film was replaced with a 0.025 mm thick silver (Ag) foil (Johnson Mathey Catalog Co., Ward Hill, Mass.). Both the cathode and the donor compartments also included adhesive washers (In Vivo Metric, Healdsberg, Calif.) with an outside diameter of 3.2 cm (11/4") and an inside diameter of 1.6 cm (5/8") between the skin and the bottom of the compartment to improve skin adhesion. All components of the system were punched out in advance and assembled on the day of the experiment. […]
substance,measurement,setting,value
Salmon Calcitonin [reference compound],time to approach steady state calcitonin levels,active current groups (1) and (2),By the second hour
same,average plasma calcitonin concentration (given in flux units),"active electrotransport 100 μA cm^-2, 1 mM sCT gel pH 6.5, with Tween 20 (group 1)",5.4 μg sCT cm^-2 h^-1
same,average plasma calcitonin concentration (given in flux units),"active electrotransport 100 μA cm^-2, 1 mM sCT gel pH 6.5, without Tween 20 (group 2)",1.2 μg sCT cm^-2 h^-1
same,"calcitonin plasma concentration, time course","active electrotransport groups (1) and (2), first hour",increased rapidly
same,average plasma calcitonin concentration with Tween 20 relative to without Tween 20,"active electrotransport, group 1 vs. group 2, second hour",3 fold
same,"calcitonin plasma profiles, group (1) with Tween 20 vs group (2) without (statistical comparison)","active electrotransport, p<0.05, ANOVA",significantly different from one another
same,"calcitonin plasma levels, passive systems","passive delivery (control group 3, with and without Tween 20), first 4 hrs.",continued to lack significant calcitonin plasma levels
same,"calcitonin plasma levels, passive systems","passive delivery (no current), first hour",low and remained at or slightly above the limit of detection
